Assay results: patent US11869191B2, “System and method for tissue viability screening” (THE REGENTS OF THE UNIVERSITY OF CALIFORNIA, priority 2019, dated 2024)

Test system: pre-implantation mouse embryos
Assay: Inhibition of glycolysis, phasor-FLIM of NADH lifetime in embryos
Format: cell-based
Conditions: 1 mM, early blastocyst stage embryos; g value vs control p-value=3.88E-09
Method: Embryos were placed in 25 μl microdroplets of KSOMaa (Invitrogen) with the appropriate inhibitors covered in mineral oil (Sigma). Both of the two chemical inhibitors, rotenone and antimycin A cocktail (R&A) and 2-Deoxyglucose (2DeoxyG) were dissolved in KSOMaa. For R&A, the inhibitor was prepared to perform dose dependence measurements for a final concentration of 100 nM and 500 nM. For 2DeoxyG, the inhibitor has a final concentration of 1 mM. KSOMaa was used as a solvent and culture media for the control group and treatment group embryos.
Fluorescence lifetime images of the pre-implantation embryos were acquired on Zeiss LSM710 (Carl Zeiss, Jena, Germany), a multi-photon microscope coupled with a Ti: Sapphire laser (Spectra-Physics Mai Tai, Mountain View, CA) with 80 MHz repetition rate. […] A dichroic filter at 690 nm was used to separate the fluorescence signal from the laser light. And the emission signal was split with 496 nm LP filter and detected in two channels using a band pass filter 460/80 and a 540/50 filter. […] FLIM calibration of the system was performed by measuring the known lifetime of a fluorophore coumarin 6 (dissolved in ethanol), which has a known fluorescence lifetime of T=2.5 ns(37, 38). […] FLIM data were acquired and processed by the SimFCS software developed at the Laboratory of Fluorescence Dynamics (LFD). […]

O=CC[C@@H](O)[C@H](O)[C@H](O)CO [2DeoxyG, 2-Deoxy-D-Glucose]
phasor-FLIM lifetime distribution (free/bound NADH) compared to controls: shifted the phasor-FLIM distribution to longer lifetime
